Test [1] deals with rats. Kind of test: Anti-ulcer activity, gastric lesions by absolute ethanol. It is filed as in vivo. The following applies: oral, 15 minutes before absolute ethanol (1 ml), evaluated one hour later; cimetidine 50 mg/Kg, composition 70 mg/Kg.
Test [2] relates to Cells of the human umbilical vein. The experiment in a line: Nitric oxide generation by chemiluminiscence, endothelial cells. Type of test: cell-based. The settings on record: incubation of 100 μM NO-donor, 5 minutes. The procedure:
(§1) Specifically the test relates to the nitric oxide generation from the NO-donors described in the present invention, among which, for instance nitroglicerin, nicorandyl, nitroprussiate, etc., when they are put in the presence of endothelial cells (method a) or platelets (method b)
The incubation medium (physiologic solvent, for example Tyrode) has been then analyzed to determine the capability to generate NO, by:
1) the nitric oxide disclosure by chemiluminiscence;
As regards the chemiluminiscence analysis, an amount equivalent to 100 ul was injected in the reaction chamber of a chemiluminiscence analyzer containing glacial acetic acid and potassium iodide. Nitrites/nitrates present in the medium under these conditions are converted into NO which is then determined after its reaction with ozone, with consequent light generation. As it usually occurs in the devices measuring the chemiluminiscence, the produced luminiscence is directly proportional to the generated NO levels and can be measured by the suitable photomultiplier unit of a chemiluminiscence analyzer.
The photomultiplier converts the incident light into electric voltage, which is then quantitatively recorded. On the basis of a calibration curve, prepared with scalar nitrite concentrations, it was possible to quantitatively determine the generated NO concentration. […]

The test system of test [3] is Washed human platelets. Kind of test: Nitric oxide generation by chemiluminiscence, platelets. Type of test: cell-based. The settings on record: incubation of 100 μM NO-donor, 5 minutes. The procedure: as §1
Washed human platelets, prepared analogously with what described by Radomski et al, (Br.J. Pharmacol. 92, 639-1987), were used. 0.4 ml alicuots were incubated with scalar NO-donor concentrations (1-100 μg/ml) for 5 minutes. The incubation medium (e.g. Tyrode) was then analyzed to determine the capability to generate NO, by determination of nitric oxide bv chemiluminiscence and CGMP, with the modalities described in the previous paragraph, for the analyses carried out on the endothelial cells. As to the determination by chemiluminiscence, also in this case, on the basis of a calibration curve, prepared with scalar nitrite concentrations, it was possible to quantitatively determine the generated NO concentration. For example, after incubation of 100 μM of nicorandyl, an amount equal to 35 μM of NO was generated.

As for `CN/C(=N/CCSCc1nc[nH]c1C)NC#N` [Cimetidine], in test [1], the “Gastric Damage” value is 100%.

Turning to `O=C(NCCO[N+](=O)[O-])c1cccnc1` [nicorandyl, N-[2-(nitroxy)ethyl]-3-pyridine-carboxamide], the “generated NO concentration” value in test [2] is “about 10 μM”; in test [3], 35 µM.

The record behind these values is patent publication US6436975B1, “Pharmaceutical compositions for ulcer” (Nicox S.A., priority 2000, dated 2002).
